According to patent US6180677A, “Tyrosine-derived compounds as calcium channel antagonists” (Warner-Lambert Company, priority 1999, dated 2001):
Counter-ions that a name gives are not always drawn. Each block holds one compound with its values, some of them ahead of it.

Experiments:
N-type Ca^2+ channel = target: T1, N-type Ca^2+ channel (Homo sapiens, UniProt Q00975); assay: N-type Ca2+ channel blocking potency in IMR-32 cells using the fluorescent Ca2+ indicator Indo-1; format: cell-based; settings: for IC50: K+-stimulated Ca2+ flux, 5 μM nitrendipine to block L-type channels, read-out: IMR32 IC50; for IMR32 % @ 1: at 1 μM; for IMR32 % @ 1 / IMR32 % @ 10: 5 μM nitrendipine; for IMR32 % @ 10: at 10 μM
T1 construct: host or cells: IMR-32 human neuroblastoma cells, differentiated with dibutyryl cAMP and bromodeoxyuridine
T1 sequence (Q00975 whole entry): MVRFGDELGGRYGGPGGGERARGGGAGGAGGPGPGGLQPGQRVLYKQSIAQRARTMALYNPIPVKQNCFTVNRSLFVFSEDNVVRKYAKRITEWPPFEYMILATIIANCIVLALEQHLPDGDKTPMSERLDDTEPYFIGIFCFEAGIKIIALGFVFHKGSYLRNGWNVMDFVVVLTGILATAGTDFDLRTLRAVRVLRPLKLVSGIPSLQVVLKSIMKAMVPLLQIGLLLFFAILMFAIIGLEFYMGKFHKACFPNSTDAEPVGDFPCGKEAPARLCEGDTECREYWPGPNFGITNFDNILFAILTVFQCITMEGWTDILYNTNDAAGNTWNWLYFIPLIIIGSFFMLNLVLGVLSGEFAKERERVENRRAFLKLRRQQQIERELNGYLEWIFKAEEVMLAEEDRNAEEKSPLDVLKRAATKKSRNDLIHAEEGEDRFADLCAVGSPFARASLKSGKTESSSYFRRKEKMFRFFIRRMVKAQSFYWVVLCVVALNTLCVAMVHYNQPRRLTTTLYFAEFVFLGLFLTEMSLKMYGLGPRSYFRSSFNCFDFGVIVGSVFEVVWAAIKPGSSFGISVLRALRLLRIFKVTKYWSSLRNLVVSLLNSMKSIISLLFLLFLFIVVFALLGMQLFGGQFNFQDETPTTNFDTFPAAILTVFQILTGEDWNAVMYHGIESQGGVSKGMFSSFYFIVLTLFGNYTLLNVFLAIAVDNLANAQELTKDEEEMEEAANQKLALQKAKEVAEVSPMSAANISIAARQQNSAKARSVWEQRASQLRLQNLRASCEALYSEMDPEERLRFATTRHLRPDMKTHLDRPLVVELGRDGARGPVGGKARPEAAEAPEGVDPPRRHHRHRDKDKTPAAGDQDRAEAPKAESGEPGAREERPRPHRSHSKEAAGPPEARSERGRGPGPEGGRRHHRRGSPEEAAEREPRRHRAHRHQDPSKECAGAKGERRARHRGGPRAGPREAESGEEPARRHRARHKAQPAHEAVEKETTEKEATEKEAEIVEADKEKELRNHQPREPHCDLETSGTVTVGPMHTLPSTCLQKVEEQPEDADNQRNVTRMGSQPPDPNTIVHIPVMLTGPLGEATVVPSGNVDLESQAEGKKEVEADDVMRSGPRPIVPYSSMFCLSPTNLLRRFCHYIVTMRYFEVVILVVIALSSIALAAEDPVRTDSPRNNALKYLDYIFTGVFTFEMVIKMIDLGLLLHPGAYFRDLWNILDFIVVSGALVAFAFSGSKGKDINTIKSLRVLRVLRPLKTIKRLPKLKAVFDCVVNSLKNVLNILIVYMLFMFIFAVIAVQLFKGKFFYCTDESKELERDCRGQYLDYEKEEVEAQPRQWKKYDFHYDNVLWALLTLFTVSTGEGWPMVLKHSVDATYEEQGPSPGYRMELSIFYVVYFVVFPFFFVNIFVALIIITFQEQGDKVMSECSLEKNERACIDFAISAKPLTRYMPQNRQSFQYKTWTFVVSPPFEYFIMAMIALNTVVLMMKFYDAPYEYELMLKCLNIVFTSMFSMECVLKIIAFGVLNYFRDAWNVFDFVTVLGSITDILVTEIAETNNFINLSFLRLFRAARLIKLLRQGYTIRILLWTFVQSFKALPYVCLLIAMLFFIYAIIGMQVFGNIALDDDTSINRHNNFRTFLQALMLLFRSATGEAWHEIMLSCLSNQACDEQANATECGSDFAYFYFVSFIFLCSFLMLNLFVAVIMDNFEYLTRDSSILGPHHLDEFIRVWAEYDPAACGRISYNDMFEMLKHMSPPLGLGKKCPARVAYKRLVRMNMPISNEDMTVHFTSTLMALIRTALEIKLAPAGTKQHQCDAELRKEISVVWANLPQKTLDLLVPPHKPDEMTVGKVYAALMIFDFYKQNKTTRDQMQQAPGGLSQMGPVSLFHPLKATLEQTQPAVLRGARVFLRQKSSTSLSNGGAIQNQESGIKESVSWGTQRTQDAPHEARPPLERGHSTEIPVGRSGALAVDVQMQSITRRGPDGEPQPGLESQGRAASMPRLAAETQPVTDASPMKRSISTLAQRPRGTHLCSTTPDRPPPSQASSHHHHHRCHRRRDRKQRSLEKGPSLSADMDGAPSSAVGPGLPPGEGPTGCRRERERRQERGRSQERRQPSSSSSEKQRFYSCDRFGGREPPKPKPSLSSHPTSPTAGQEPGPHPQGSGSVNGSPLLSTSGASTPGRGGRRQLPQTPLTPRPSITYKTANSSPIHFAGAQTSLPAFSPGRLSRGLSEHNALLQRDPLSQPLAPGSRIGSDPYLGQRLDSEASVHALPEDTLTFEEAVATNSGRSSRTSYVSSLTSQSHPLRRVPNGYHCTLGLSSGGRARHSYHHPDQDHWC
T1 sequence (P54289 25-956 partner limits assumed): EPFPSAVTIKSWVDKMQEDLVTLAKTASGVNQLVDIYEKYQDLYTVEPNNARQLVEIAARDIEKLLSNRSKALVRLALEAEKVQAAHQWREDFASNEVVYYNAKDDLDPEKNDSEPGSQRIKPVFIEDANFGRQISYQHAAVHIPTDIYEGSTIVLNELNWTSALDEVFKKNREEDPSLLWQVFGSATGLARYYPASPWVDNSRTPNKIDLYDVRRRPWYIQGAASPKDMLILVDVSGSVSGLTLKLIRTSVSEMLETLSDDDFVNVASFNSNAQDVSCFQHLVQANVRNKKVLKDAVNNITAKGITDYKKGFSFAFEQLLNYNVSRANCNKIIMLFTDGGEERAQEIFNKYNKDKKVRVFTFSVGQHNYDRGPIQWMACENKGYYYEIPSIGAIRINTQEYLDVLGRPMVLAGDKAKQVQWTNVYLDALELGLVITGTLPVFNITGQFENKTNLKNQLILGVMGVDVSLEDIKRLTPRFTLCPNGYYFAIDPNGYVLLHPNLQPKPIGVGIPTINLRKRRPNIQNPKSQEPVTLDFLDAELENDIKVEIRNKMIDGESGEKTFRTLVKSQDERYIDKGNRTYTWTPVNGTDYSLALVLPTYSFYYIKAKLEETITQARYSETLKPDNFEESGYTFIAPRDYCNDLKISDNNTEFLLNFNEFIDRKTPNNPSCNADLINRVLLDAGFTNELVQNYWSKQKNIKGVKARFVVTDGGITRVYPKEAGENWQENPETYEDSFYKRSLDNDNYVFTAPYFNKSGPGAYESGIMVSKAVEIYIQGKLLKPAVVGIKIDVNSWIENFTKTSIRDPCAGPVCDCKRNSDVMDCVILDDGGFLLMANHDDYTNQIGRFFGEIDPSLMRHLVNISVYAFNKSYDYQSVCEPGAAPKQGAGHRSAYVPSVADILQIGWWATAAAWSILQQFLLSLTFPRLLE
T1 sequence (P54289 957-1103 partner limits assumed): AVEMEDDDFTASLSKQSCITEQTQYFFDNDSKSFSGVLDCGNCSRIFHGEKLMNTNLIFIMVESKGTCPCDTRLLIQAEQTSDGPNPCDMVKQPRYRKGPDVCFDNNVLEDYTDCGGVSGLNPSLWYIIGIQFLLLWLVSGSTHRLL
T1 sequence (P54284 whole entry partner): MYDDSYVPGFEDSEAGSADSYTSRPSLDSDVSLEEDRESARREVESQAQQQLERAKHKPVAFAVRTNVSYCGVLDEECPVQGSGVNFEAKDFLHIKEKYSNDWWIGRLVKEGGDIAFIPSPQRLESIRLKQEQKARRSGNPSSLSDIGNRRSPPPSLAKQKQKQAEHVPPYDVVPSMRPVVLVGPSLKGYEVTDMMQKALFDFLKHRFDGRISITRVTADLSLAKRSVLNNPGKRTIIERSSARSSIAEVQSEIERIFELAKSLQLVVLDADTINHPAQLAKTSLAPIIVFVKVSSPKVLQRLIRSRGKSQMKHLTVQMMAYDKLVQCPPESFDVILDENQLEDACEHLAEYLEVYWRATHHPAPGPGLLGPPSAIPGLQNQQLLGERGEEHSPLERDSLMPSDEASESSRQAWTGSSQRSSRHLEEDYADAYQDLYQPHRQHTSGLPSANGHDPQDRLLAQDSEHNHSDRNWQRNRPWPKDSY
Procedure: Measurement of N-type Ca^2+ Channel Blocking Potencies of Compounds in IMR-32 Cells Using the Fluorescent Ca^2+ Indicator Indo-1
IMR-32 cells are a human tumoral cell line of neural origin. […] Calcium flux into these cells may be induced by stimulation with elevated potassium concentrations. The L-channel component of calcium flux may be blocked by adding 5 μM nitrendipine. The remaining component of calcium entry into the IMR-32 cells is due to calcium flux through N-type calcium channels. Intracellular calcium concentrations are measured using the fluorescent calcium indicator Indo-1. The effect of drug concentration on calcium uptake is studied.
The IMR-32 cell line was obtained from the American Type Culture Collection (Rockville, Md.). Cells were grown in Eagle's Minimum Essential Medium with Earle's salts supplemented with 10% fetal bovine serum, 2 mM L-Gln and antibiotic/antimicotic mixture (Gibco). At approximately 80% confluency, differentiation was induced by the addition of 1 mM dibutyryl cAMP and 2.5 μM bromodeoxyuridine to the medium. After 7 to 13 days of differentiation, cells were detached using 0.5 mM EDTA and loaded with 5 μM Indo-1 acetoxymethyl ester (Molecular Probes, Eugene, Oreg.) at […] for 45 minutes. Loaded cells were washed twice, resuspended (~10^7 cells/mL) in assay buffer (10 mM HEPES/Tris pH 7.4 in Hank's Balanced Salt Solution without bicarbonate or phenol red containing 0.5% bovine serum albumin) and kept on ice until use. Fluorescence measurements were carried out in a Photon Technology International (PTI, South Brunswick, N.J.) Model RF-F3004 spectrofluorometer with dual emission monochromators using excitation at 350 nm and emission at 400 and 490 nm. The instrument was equipped with a thermostated cuvette holder with stirring capabilities, as well as with a computer-controlled pump that allowed for reagent addition during measurement. Instrument control and data collection was done by PTI's OSCAR software running on an IBM compatible computer. Different concentrations of the test compounds (60 μL in dimethyl sulfoxide) were added to 5.94 mL of assay buffer containing approximately 3×10^6 loaded cells, and 5 μM Nitrendipine (in 30 μL EtOH) to block L-type Ca^2+ channels. Samples were incubated for 10 minutes at 30° C. and then aliquoted into three 10×10 mm disposable acrylic cuvettes. Emission signals at 400 and 490 nm were acquired from each cuvette at 30° C. for 50 seconds. At 20 seconds after the start of reading, cells were depolarized by the addition of 160 μL of stimulation solution (1 M KCl, 68 mM CaCl2) to the cuvette via the computer-controlled pump. Ratio of dual emission signals (400 nm/490 nm), which is proportional to intracellular Ca^2+ concentration, was plotted against time, and the difference between maximal response after stimulation and basal value (before stimulation) was determined. Values obtained in this way were plotted as a function of drug concentration. IC50 values of test compounds were calculated by fitting a four-parameter logistic function to the data using the least squared method.

DBA/2 mice = assay: Audiogenic seizure model in DBA/2 mice; format: in vivo; settings: protected/tested
Procedure: Audiogenic Seizure Model in DBA/2 Mice
In Vivo Biological Protocol
A compound of the present invention was dissolved in water using 10% (weight/volume) Emulphor (GAF Corp., Wayne, N.J.) surfactant. Substances were administered by intravenous injection into the retro-orbital venous sinus. All testing was performed 15 minutes or 45 minutes after drug injection. All the male mice, 3 to 4 weeks old, were obtained from Jackson Laboratories, Bar Harbour, Me. Immediately before anticonvulsant testing, mice were placed upon a wire mesh, 4 inches square suspended from a steel rod. […] Any mouse falling from the wire mesh was scored as ataxic.
Mice were placed into an enclosed acrylic plastic chamber (21 cm height, approximately 30 cm diameter) with a high-frequency speaker (4 cm diameter) in the center of the top lid. An audio signal generator (Protek model B-810) was used to produce a continuous sinusoidal tone that was swept linearly in frequency between 8 kHz and 16 kHz once each 10 msec. The average sound pressure level (SPL) during stimulation was approximately 100 dB at the floor of the chamber. Mice were placed within the chamber and allowed to acclimatize for 1 minute. DBA/2 mice in the vehicle-treated group responded to the sound stimulus (applied until tonic extension occurred, or for a maximum of 60 seconds) with a characteristic seizure sequence consisting of wild running followed by clonic seizures, and later by tonic extension, and finally by respiratory arrest and death in 80% or more of the mice. In vehicle-treated mice, the entire sequence of seizures to respiratory arrest lasts approximately 15 to 20 seconds.
The incidence of all the seizure phases in the drug-treated and vehicle-treated mice was recorded, and the occurrence of tonic seizures were used for calculating anticonvulsant ED50 values by probit analysis. Mice were used only once for testing at each time and dose point.

[1] = 30 mg/kg IV, 15 minutes post treatment
[2] = 30 mg/kg IV, 45 minutes post treatment
[3] = 10 mg/kg IV, 15 minutes post treatment

Compound: CC(C)CCC(CCC(C)C)N[C@@H](Cc1ccc(OCc2ccccc2)cc1)C(=O)NC(C)(C)C.Cl [Example 4, (S)-3-(4-Benzyloxy-phenyl)-N-tert-butyl-2-[4-methyl-1-(3-methyl-butyl)-pentylamino]-propionamide monohydrochloride]
IMR32 % @ 1 (N-type Ca^2+ channel): 45%
IMR32 % @ 10 (N-type Ca^2+ channel): 102%

Compound: CC(C)CCN(CC1CCCCC1)[C@@H](Cc1ccc(OCc2ccccc2)cc1)C(=O)NC(C)(C)C.Cl [Example 5, (S)-3-(4-Benzyloxy-phenyl)-N-tert-butyl-2-[cyclohexyl-methyl-(3-methyl-butyl)-amino]-propionamide monohydrochloride]
IMR32 % @ 1 (N-type Ca^2+ channel): 27%
IMR32 % @ 10 (N-type Ca^2+ channel): 61%

Compound: CC(C)(C)CCN[C@@H](Cc1ccc(OCc2ccccc2)cc1)C(=O)NC(C)(C)C [Example 7, (S)-3-(4-Benzyloxy-phenyl)-N-tert-butyl-2-(3,3-dimethyl-butylamino)-propionamide monohydrochloride]
IC50 (N-type Ca^2+ channel): 1400 nM

Compound: CC(C)(C)CCN(CCC(C)(C)C)[C@@H](Cc1ccc(OCc2ccccc2)cc1)C(=O)NC(C)(C)C [Example 8, (S)-3-(4-Benyloxy-phenyl)-2-[bis-(3,3-dimethyl-butyl)-amino]-N-tert-butyl-propionamide monohydrochloride]
IC50 (N-type Ca^2+ channel): 790 nM

Compound: CC(C)(C)NC(=O)[C@H](Cc1ccc(OCc2ccccc2)cc1)NCc1ccc(C(C)(C)C)cc1 [Example 9, (S)-3-(4-Benzyloxy-phenyl)-N-tert-butyl-2-(4-tert-butyl-benzylamino)-propionamide monohydrochloride]
IC50 (N-type Ca^2+ channel): 2000 nM

Compound: (S)-3-(4-Benzyloxy-phenyl)-N-tert-butyl-2-(3-methyl-butylamino)-propionamide monohydrochloride [Example 2]
IC50 (N-type Ca^2+ channel): 2000 nM

Continued, in another order:

IC50 (N-type Ca^2+ channel): 1200 nM
Compound: CC(C)(C)NC(=O)[C@H](Cc1ccc(OCc2ccccc2)cc1)NC(=O)C1(c2ccccc2)CCCC1 [Example 1, (S)-1-Phenyl-cyclopentanecarboxylic acid [2-(4-benzyloxy-phenyl)-1-tert-butylcarbamoyl-ethyl]-amide]

IC50 (N-type Ca^2+ channel): 760 nM
Compound: CC(C)CCN(CCC(C)C)[C@@H](Cc1ccc(OCc2ccccc2)cc1)C(=O)NC(C)(C)C.Cl [Example 3, (S)-3-(4-Benzyloxy-phenyl)-2-[bis-(3-methyl-butyl)-amino]-N-tert-butyl-propionamide monohydrochloride]
Number of Mice Protected from Tonic Convulsions (DBA/2 mice; [1]): 4/5

IC50 (N-type Ca^2+ channel): 440 nM
Compound: CC(C)CCN(CCC(C)(C)C)[C@@H](Cc1ccc(OCc2ccccc2)cc1)C(=O)NC(C)(C)C.Cl [Example 6, (S)-3-(4-Benzyloxy-phenyl)-N-tert-butyl-2-[(3,3-dimethyl-butyl)-(3-methyl-butyl)-amino]-propionamide monohydrochloride]
Number of Mice Protected from Tonic Convulsions (DBA/2 mice; [1]): 2/5
Number of Mice Protected from Tonic Convulsions (DBA/2 mice; [2]): 4/5

IC50 (N-type Ca^2+ channel): 680 nM
Compound: CC(C)(C)c1ccc(CN(Cc2ccc(C(C)(C)C)cc2)[C@@H](Cc2ccc(OCc3ccccc3)cc2)C(=O)NCCN2CCCCC2)cc1 [Example 10, (S)-3-(4Benzyloxy-phenyl)-2-[bis-(4-tert-butyl-benzyl)-amino]-N-(2-piperidin-1-yl-ethyl)-propionamide]

IC50 (N-type Ca^2+ channel): 170 nM
Compound: CC(C)(C)c1ccc(CN(Cc2ccc(C(C)(C)C)cc2)C(CNCCN2CCCCC2)Cc2ccc(OCc3ccccc3)cc2)cc1 (centres unmarked) [Example 11, 3-(4-Benzyloxy-phenyl)-N^2, N^2-bis-(4-tert-butyl-benzyl)-N^1-(2-piperidin-1-yl-ethyl)-propane-1,2-diamine]

IC50 (N-type Ca^2+ channel): 280 nM
Compound: CC(C)(C)c1ccc(CNC(CNCCN2CCCCC2)Cc2ccc(OCc3ccccc3)cc2)cc1 (centres unmarked) [Example 12, 3-(4-Benzyloxy-phenyl)-N^2-(4-tert-butyl-benzyl)-N^1-(2-piperidin-1-yl-ethyl)-propane-1,2-diamine]
Number of Mice Protected from Tonic Convulsions (DBA/2 mice; [3]): 0/5

IC50 (N-type Ca^2+ channel): 700 nM
Compound: CC(C)(C)c1ccc(CN[C@@H](Cc2ccc(OCc3ccccc3)cc2)C(=O)NCCN2CCCCC2)cc1 [Example 13, (S)-3-(4-Benzyloxy-phenyl)-2-(4-tert-butyl-benzylamino)-N-(2-piperidin-1-yl-ethyl)-propionamide]
Number of Mice Protected from Tonic Convulsions (DBA/2 mice; [3]): 0/5
Number of Mice Protected from Tonic Convulsions (DBA/2 mice; 10 mg/kg IV, 45 minutes post treatment): 1/5
Number of Mice Protected from Tonic Convulsions (DBA/2 mice; [1]): 4/5
Number of Mice Protected from Tonic Convulsions (DBA/2 mice; [2]): 4/5

IC50 (N-type Ca^2+ channel): 450 nM
Compound: CC(C)(C)NCC(Cc1ccc(OCc2ccccc2)cc1)NCc1ccc(C(C)(C)C)cc1 (centres unmarked) [Example 14, 3-(4-Benzyloxy-phenyl)-N^1-tert-butyl-N^2-(4-tert-butyl-benzyl)-propane-1,2-diamine]
Number of Mice Protected from Tonic Convulsions (DBA/2 mice; [1]): 5/5
Number of Mice Protected from Tonic Convulsions (DBA/2 mice; [2]): 4/5
